According to US8614203B2, “Methods for the treatment of a central nervous system injury via a tapered administration protocol” (Emory University, priority 2005, dated 2013):

Tests used:
[1] = test system: bilateral contusions of the medial prefrontal cortex; test: Example 1: necrotic cavity, lateral ventricle and striatal area measurements after TBI (Nissl/thionine histology); assay type: in vivo, Sprague-Dawley rats; details: 4 mg/kg in peanut oil, 21 days after surgery
Description: (§1) Male Sprague-Dawley rats (300 g) were housed individually in wire cages and kept on a reverse light-dark cycle (0800-2000 h). […] All procedures involving animals conformed to guidelines set forth in the Guide for the Care and Use of Laboratory Animals (U.S. Department of Health and Human Services, Pub no. 85-23, 1985) and were approved by the Emory University Institutional Animal Care and Use Committee.
(§2) Bilateral contusions of the medial prefrontal cortex were created by a pneumatic impactor device as previously described. Briefly, rats were given anesthetized with ketamine/xylazine (90 mg/kg; 10 mg/kg) and placed in a stereotaxic apparatus. A craniectomy (diameter 6 mm) was made over the midline of the prefrontal cortex with its center 1.5 mm AP to bregma. After removal of the bone, the tip of the impactor (diameter 5 mm) was moved to +3.0 mm AP; 1.0 mm ML (from bregma), and checked for adequate clearance. Trauma was produced by pneumatically activating the piston to impact −2.0 mm DV (from dura) at a velocity of 3 m/s with a brain contact time of 0.5 seconds.
(§3) Control animals received injections of vehicle at similar time-points. Animals were coded with regard to surgery and treatment to prevent experimenter bias during behavioral testing and histological examination.
Twenty-one days after surgery, animals were perfused with 100 ml 0.1 M phosphate-buffered saline (PBS; pH 7.4) followed by 400 ml 4% paraformaldehyde in 0.1 M phosphate buffer (PB; pH 7.4). Following cryoprotection in 30% sucrose, coronal 40-μm-thick sections were cut on a freezing microtome, immediately mounted on gel-coated slides and stained for Nissl with thionine to determine placement and extent of the injury.
Mean area measurements of lesion size were quantified from sections at 15 rostral-caudal levels spaced 300 μm apart. […] Perimeters of the striatum and the lateral ventricles were also traced and mean areas were quantified from 7 rostral-caudal levels (300 μm apart).
(§4) Experienced individuals who were blind to treatment conditions of the study conducted all histological and behavioral analyses. All data were tested for normality and homoschedasticity before being analyzed by parametric analysis of variance (ANOVA). MWM results were analyzed using separate mixed-factorial (4 groups×5 days) analysis of variance (ANOVA) on each of the two 5-day testing periods (acquisition and retention respectively). Results of the BSN task were analyzed using the mixed-factorial ANOVA (4 groups×2 post-injury trials). […] Pearson r coefficients were calculated to determine whether significant correlations could be detected between histological (e.g., lesion size and cellular density) and behavioral parameters (e.g., acquisition and retention of the MWM task and measures of sensory neglect).

[2] = test system: bilateral contusions of the medial prefrontal cortex; test: Example 1: bilateral sensory neglect (BSN) task after TBI; assay type: in vivo, Sprague-Dawley rats; details: 4 mg/kg, 3 days (LP3); 6 and 20 days post injury
Description: as §1
Bilateral contusions of the medial prefrontal cortex were created by a pneumatic impactor device as previously described. Briefly, rats were given anesthetized with ketamine/xylazine (90 mg/kg; 10 mg/kg) and placed in a stereotaxic apparatus. […]
Experienced individuals who were blind to treatment conditions of the study conducted all histological and behavioral analyses. All data were tested for normality and homoschedasticity before being analyzed by parametric analysis of variance (ANOVA). MWM results were analyzed using separate mixed-factorial (4 groups×5 days) analysis of variance (ANOVA) on each of the two 5-day testing periods (acquisition and retention respectively). Results of the BSN task were analyzed using the mixed-factorial ANOVA (4 groups×2 post-injury trials). […]
Measures of attentional abilities, using a bilateral sensory neglect (BSN) task, were recorded one day prior to surgery (baseline) and on postsurgical days 6 and 20. […]

[3] = test system: medial frontal cortex injury or sham surgery; test: Example 3: behavioral testing (anxiety, locomotor, sensory neglect), acute vs tapered withdrawal; assay type: in vivo, Sprague-Dawley rats
Description: (§5) Male Sprague-Dawley rats received either medial frontal cortex injury or sham surgery. Injections were given 1 and 6 hours post-injury, and every 24 hours for 7 days. Treatment groups (n=8) encompassed injured (I) and sham (S) acute withdrawal (AW), tapered withdrawal (TW) and vehicle (V) treatments. TW injections were progressively halved over the final two treatments. Behavioral testing was conducted post-surgery, mid- and post-withdrawal. Activity boxes were used to investigate vertical movements and exploration: Sensory neglect and anxiety behaviors were also analyzed. Brain harvesting was performed at 8 days or 3 weeks post-injury. Perfused tissue sections were analyzed for lesion volume and immunohistochemical response. Fresh brain tissue was flash frozen in chilled 2-methyl butane, and then homogenized for Western blot analysis.

[4] = test system: bilateral contusions of the medial prefrontal cortex; test: Example 1: cell counts of Nissl-stained neurons (STR, GP, DMN, VMN) after TBI; assay type: in vivo, Sprague-Dawley rats; details: 4 mg/kg in peanut oil
Description: as §1
as §2, with “seconds. […]” for “seconds.”
Cell counts were done on an Olympus BH-2 microscope equipped with an eyepiece micrometer grid (sample area=40 um^2 at ×400 magnification). […] Only cells with neuronal nuclei and intact membranes were counted as neurons.
as §4

ischemic injury = details: following ischemic injury in rats (Jiang et al. 1996); cited from earlier work
[5] = test system: p53, active Caspase 3, TNFα and NFκB; test: Example 3: Western blot of apoptotic and inflammatory proteins; assay type: in vivo, Sprague-Dawley rats
Description: as §5

[6] = test system: bilateral contusions of the medial prefrontal cortex; test: Example 1: Morris water maze (MWM) task after TBI; assay type: in vivo, Sprague-Dawley rats
Description: as §1, §2, §3
Experienced individuals who were blind to treatment conditions of the study conducted all histological and behavioral analyses. All data were tested for normality and homoschedasticity before being analyzed by parametric analysis of variance (ANOVA). MWM results were analyzed using separate mixed-factorial (4 groups×5 days) analysis of variance (ANOVA) on each of the two 5-day testing periods (acquisition and retention respectively). Results of the BSN task were analyzed using the mixed-factorial ANOVA (4 groups×2 post-injury trials). Histological comparisons on mean densitometry recordings, area measurements, and cell counts were made using a one-way ANOVA. All between-group comparisons were made using multiple Tukey post-hoc tests (p<0.05) when the overall ANOVA was significant ([…]) between groups. Pearson r coefficients were calculated to determine whether significant correlations could be detected between histological (e.g., lesion size and cellular density) and behavioral parameters (e.g., acquisition and retention of the MWM task and measures of sensory neglect).
Beginning one week after surgery, spatial learning ability was assessed in the Morris water maze (MWM) task described previously. […] Animals were placed in the pool (nose facing the pool-wall) at one of four randomly determined starting positions (e.g.: N, S, E, W). […] Swim speed measures were recorded daily in order to delineate motor dysfunction from learning impairment.

GFAP = test: Example 3: GFAP staining (reactive astrocytes); assay type: in vivo, Sprague-Dawley rats
Description: as §5

SMILES: CC(=O)[C@H]1CC[C@H]2[C@@H]3CCC4=CC(=O)CC[C@]4(C)[C@H]3CC[C@]12C [progesterone, pregn-4-ene-3,20-dione]
- enlargement of the lateral ventricles ([1]; 3 or 5 days): did not have any effect on this measure
- mean striatal area ([1]; 3 or 5 days): No between-group differences
- necrotic cavity size ([1]; 3 days (LP3), vs injured animals): tended to be smaller than in the brains of injured animals
- necrotic cavity formation ([1]; 5 days (LP5), vs vehicle-injected injured animals): significant reductions in overall necrotic cavity formation
- BSN task performance (latency to remove adhesive stimuli) [2]: impaired on this task compared to control animals at both 6 and 20 days post injury
- anxiety, locomotor and sensory deficits ([3]; injured (AWI) vs tapered withdrawal, injured (TWI)): increase anxiety, locomotor and sensory deficits compared to tapered progesterone withdrawal
- behavioral impairments one week after peak of withdrawal ([3]; injured (AWI), one week later): increased behavioral impairments are still evident in AWI animals
- motor impairments ([3]; shams (AWS) vs other shams): increased motor impairments compared to all other shams
- anxiety ([3]; shams (AWS) vs tapered progesterone rats): increased anxiety compared to tapered progesterone rats
- injury-induced neuronal loss (mean cellular density STR, GP, DMN, VMN) ([4]; 3 days (LP3)): significant reduction of injury-induced neuronal loss in all brain regions examined
- injury-induced neuronal loss (mean cellular density STR, GP, DMN, VMN) ([4]; 5 days (LP5)): significant reduction of injury-induced neuronal loss in all brain regions examined
- neuronal loss in the VMN, 5 days vs 3 days of treatment ([4]; 5 days compared with 3 days): more effective than 3 days at attenuating neuronal loss in the VMN
- cell damage and neurological deficit (ischemic injury): reduce cell damage and neurological deficit
- expression of apoptotic and inflammatory proteins, outcome vs vehicle ([5]; all progesterone treatments (acute and tapered) vs vehicle-only controls): all progesterone treatments led to better outcomes compared to vehicle-only controls
- apoptosis and inflammation (p53, active Caspase 3, TNFα, NFκB) ([5]; tapered withdrawal (TW)): decreased with TW
- MWM spatial learning performance, second 5-day trial block (retention) ([6]; 4 mg/kg in peanut oil, 5 days (LP5)): improved spatial learning performance
- MWM spatial learning performance, initial 5-day acquisition phase ([6]; 4 mg/kg in peanut oil, LP3 and LP5 (all injured groups)): deficits in spatial learning performance as compared to control animals
- thigmotaxic (wall-hugging) swim patterns in MWM ([6]; 4 mg/kg, 5 days (LP5), last 2 days of second phase of MWM testing): reduction of thigmotaxic behavior
- swim speed in MWM ([6]; 4 mg/kg, LP3 and LP5, any day of testing): no between-group differences on swim speed measurements
- reactive astrocytes (GFAP staining) (GFAP; acute withdrawal, injured, rank between TWI and VI): followed by AWL
- reactive astrocytes (GFAP staining) (GFAP; tapered withdrawal, injured (TWI)): fewest reactive astrocytes
